One assay concerns HBV replication in HepG2.2.15 cells. Description: HBV replication inhibition assay (BDNA assay). The assay is classed as cell-based. The following applies: 6 days of treatment, encapsidated HBV DNA in supernatant by branched DNA QuantiGene assay, listed as 828 E1. The source says:
HBV replication inhibition by the compounds of this invention could be determined in cells infected or transfected with HBV, or cells with stably integrated HBV, such as HepG2.2.15 cells (Sells et al. 1987). In this example, HepG2.2.15 cells were maintained in cell culture medium containing 10% fetal bovine serum (FBS), Geneticin, L-glutamine, penicillin and streptomycin. HepG2.2.15 cells could be seeded in 96-well plates at a density of 40,000 cells/well and be treated with serially diluted compounds at a final DMSO concentration of 0.5% either alone or in combination by adding drugs in a checker box format. Cells were incubated with compounds for three days, after which medium was removed and fresh medium containing compounds was added to cells and incubated for another three days. At day 6, supernatant was removed and treated with DNase at 37° C. for 60 minutes, followed by enzyme inactivation at 75° C. for 15 minutes. Encapsidated HBV DNA was released from the virions and covalently linked HBV polymerase by incubating in lysis buffer (Affymetrix QS0010) containing […] proteinase K at 50° C. for 40 minutes. HBV DNA was denatured by addition of 0.2 M NaOH and detected using a branched DNA (BDNA) QuantiGene assay kit according to manufacturer recommendation (Affymetrix). HBV DNA levels could also be quantified using qPCR, based on amplification of encapsidated HBV DNA extraction with QuickExtraction Solution (Epicentre Biotechnologies) and amplification of HBV DNA using HBV specific PCR probes that can hybridize to HBV DNA and a fluorescently labeled probe for quantitation. In addition, cell viability of HepG2.2.15 cells incubated with test compounds alone or in combination was determined by using CellTitre-Glo reagent according to the manufacturer protocol (Promega). The mean background signal from wells containing only culture medium was subtracted from all other samples, and percent inhibition at each compound concentration was calculated by normalizing to signals from HepG2.2.15 cells treated with 0.5% DMSO using equation E1. % inhibition=(DMSOave−Xi)/DMSOave×100% E1: […]
where DMSOave is the mean signal calculated from the wells that were treated with DMSO control (0% inhibition control) and Xi is the signal measured from the individual wells. EC50 values, effective concentrations that achieved 50% inhibitory effect, were determined by non-linear fitting using Graphpad Prism software (San Diego, Calif.) and equation E2 Y=Ymin+(Ymax−Ymin)/(1+10(LogEC50-X)×HillSlope) E2: […]
where Y represents percent inhibition values and X represents the logarithm of compound concentrations.
Selected compounds of the invention were assayed in the HBV replication assay (BDNA assay), as described above and a representative group of these active compounds is shown in Table 3. […] In Table 3, “A” represents 0.01<EC50<0.10; “B” represents 0.10<EC50<0.50; and “C” represents 0.50<EC50<1.0.
On to `CON(C)C(=O)c1n[nH]c2c1CN(C(=O)Nc1cccc(Cl)c1)C(C)C2` (stereo not shown) [Compound 828 E1, N5-(3-chlorophenyl)-N3-methoxy-N3,6-dimethyl-1,4,6,7-tetrahydropyrazolo [4,3-c]pyridine-3,5-dicarboxamide], for which the EC50 fell in the range of 0.01 to 0.1 µM.

The assay is the same for the next values; noted with them: 6 days of treatment, encapsidated HBV DNA in supernatant by branched DNA QuantiGene assay, listed as 828 E2.
As for `CON(C)C(=O)c1n[nH]c2c1CN(C(=O)Nc1cccc(Cl)c1)C(C)C2` (stereo not shown) [Compound 828 E2, N5-(3-chlorophenyl)-N3-methoxy-N3,6-dimethyl-1,4,6,7-tetrahydropyrazolo [4,3-c]pyridine-3,5-dicarboxamide], the EC50 is 0.1 to 0.5 µM.

The assay is the same for the next values; noted with them: Hepatitis B virus, HepG2.2.15, 144 h, 6 days of treatment, encapsidated HBV DNA in supernatant by branched DNA QuantiGene assay.
In the case of `CCON(C)C(=O)c1n[nH]c2c1CN(C(=O)Nc1cccc(Cl)c1)CC2` [Compound 599], the EC50 fell in the range of 0.01 to 0.1 µM.
As to `O=C(Nc1cccc(Cl)c1)N1CCc2[nH]nc(C(=O)N3CC(F)CO3)c2C1` (stereo not shown) [Compound 698, N-(3-chlorophenyl)-3-(4-fluoroisoxazolidine-2-carbonyl)-1,4,6,7-tetrahydropyrazolo[4,3-c]pyridine-5-carboxamide], the concentration giving a half-maximal response (EC50) lay in the range of 0.01 to 0.1 µM.
For the molecule `CN(OC1CCC1)C(=O)c1n[nH]c2c1CN(C(=O)Nc1cccc(Cl)c1)CC2` [Compound 805], the EC50 fell in the range of 0.01 to 0.1 µM.
As for `CC(C)CON(C)C(=O)c1n[nH]c2c1CN(C(=O)Nc1cccc(Cl)c1)CC2` [Compound 798], the EC50 was 0.1 to 0.5 µM.
As for `COCCON(C)C(=O)c1n[nH]c2c1CN(C(=O)Nc1cccc(Cl)c1)CC2` [Compound 800], the EC50 fell in the range of 0.1 to 0.5 µM.
`O=C(Nc1cccc(Cl)c1)N1CCc2[nH]nc(C(=O)N3CCCO3)c2C1` [Compound 699, N-(3-chlorophenyl)-3-(isoxazolidine-2-carbonyl)-1,4,6,7-tetrahydropyrazolo[4,3-c]pyridine-5-carboxamide]: the EC50 fell in the range of 0.1 to 0.5 µM.
Regarding `CN(OC1CCOC1)C(=O)c1n[nH]c2c1CN(C(=O)Nc1cccc(Cl)c1)CC2` (stereo not shown) [Compound 910, N5-(3-chlorophenyl)-N3-methyl-N3-tetrahydrofuran-3-yloxy-1,4,6,7-tetrahydropyrazolo[4,3-c]pyridine-3,5-dicarboxamide], the EC50 is 0.1 to 0.5 µM.
`CON(C)C(=O)c1n[nH]c2c1CN(C(=O)Nc1cccc(Cl)c1)CC2` [Compound 434, N5-(3-chlorophenyl)-N3-methoxy-N3-methyl-1,4,6,7-tetrahydropyrazolo [4,3-c]pyridine-3,5-dicarboxamide]: the EC50 lay within 0.01 to 0.1 µM.
Turning to `CCCON(C)C(=O)c1n[nH]c2c1CN(C(=O)Nc1cccc(Cl)c1)CC2` [Compound 795], the EC50 is 0.1 to 0.5 µM.
`O=C(Nc1cccc(Cl)c1)N1CCc2[nH]nc(C(=O)N3CC(O)CO3)c2C1` (stereo not shown) [Compound 697, N-(3-chlorophenyl)-3-(4-hydroxyisoxazolidine-2-carbonyl)-1,4,6,7-tetrahydropyrazolo [4,3-c]pyridine-5-carboxamide]: the EC50 lay in the range of 0.5 to 1 µM.
Take `CN(OCC1CC1)C(=O)c1n[nH]c2c1CN(C(=O)Nc1cccc(Cl)c1)CC2` [Compound 803]: the EC50 lay in the range of 0.1 to 0.5 µM.
Turning to `CN1CC(ON(C)C(=O)c2n[nH]c3c2CN(C(=O)Nc2cccc(Cl)c2)CC3)C1` [Compound 912, N5-(3-chlorophenyl)-N3-methyl-N3-(1-methylazetidin-3-yl)oxy-1,4,6,7-tetrahydropyrazolo[4,3-c]pyridine-3,5-dicarboxamide], the EC50 was 0.1 to 0.5 µM.
The same measure, in the same setting: the same measure for `CON(C(=O)c1n[nH]c2c1CN(C(=O)Nc1cccc(Cl)c1)CC2)C(C)C` [Compound 595, N5-(3-chlorophenyl)-N3-isopropyl-N3-methoxy-1,4,6,7-tetrahydropyrazolo [4,3-c]pyridine-3,5-dicarboxamide]: 0.1 to 0.5 µM.
Regarding `CN(C)N(C)C(=O)c1n[nH]c2c1CN(C(=O)Nc1cccc(Cl)c1)CC2` [Compound 937], the EC50 was 0.01 to 0.1 µM.
For the molecule `CCN(OC)C(=O)c1n[nH]c2c1CN(C(=O)Nc1cccc(Cl)c1)CC2` [Compound 594, N5-(3-chlorophenyl)-N3-ethyl-N3-methoxy-1,4,6,7-tetrahydropyrazolo [4,3-c]pyridine-3,5-dicarboxamide], the EC50 lay in the range of 0.01 to 0.1 µM.
`CCC(=O)c1n[nH]c2c1CN(C(=O)Nc1cccc(Cl)c1)CC2` [Compound 695, N-(3-chlorophenyl)-3-propanoyl-1,4,6,7-tetrahydropyrazolo [4,3-c]pyridine-5-carboxamide]: the EC50 is 0.1 to 0.5 µM.
As to `CN(OCCO)C(=O)c1n[nH]c2c1CN(C(=O)Nc1cccc(Cl)c1)CC2` [Compound 796], the half-maximal effective concentration (EC50) lay within 0.1 to 0.5 µM.
In the case of `CC(C)ON(C)C(=O)c1n[nH]c2c1CN(C(=O)Nc1cccc(Cl)c1)CC2` [Compound 600, N5-(3-chlorophenyl)-N3-isopropoxy-N3-methyl-1,4,6,7-tetrahydropyrazolo[4,3-c]pyridine-3,5-dicarboxamide], the EC50 lay in the range of 0.01 to 0.1 µM.
For the molecule `CCCC(=O)c1n[nH]c2c1CN(C(=O)Nc1cccc(Cl)c1)CC2` [Compound 561], the concentration giving a half-maximal response (EC50) fell in the range of 0.01 to 0.1 µM.
As for `CN(O)C(=O)c1n[nH]c2c1CN(C(=O)Nc1cccc(Cl)c1)CC2` [Compound 587, N5-(3-chlorophenyl)-N3-hydroxy-N3-methyl-6,7-dihydro-1H-pyrazolo[4,3-c]pyridine-3,5(4H)-dicarboxamide], the EC50 lay within 0.5 to 1 µM.

These data come from patent US10189835B2, “Derivatives and methods of treating hepatitis B infections” (Novira Therapeutics, Inc., priority 2014, dated 2019).
